Results on one compound are retold here after paper PMC4302236, “Functional profile of a novel modulator of serotonin, dopamine, and glutamate neurotransmission” (Psychopharmacology, 2014).

Where “and” joins values, the source holds several entries; their conditions need not be identical. Identical values can stand only once.

In test [1] the target is T1, 5-HT2C receptor (Sus scrofa, UniProt K7GSR7).
T1 construct: tissue NovaScreen/Caliper/Perkin-Elmer; host or cells: pig choroid plexus
T1 sequence (K7GSR7 1-457): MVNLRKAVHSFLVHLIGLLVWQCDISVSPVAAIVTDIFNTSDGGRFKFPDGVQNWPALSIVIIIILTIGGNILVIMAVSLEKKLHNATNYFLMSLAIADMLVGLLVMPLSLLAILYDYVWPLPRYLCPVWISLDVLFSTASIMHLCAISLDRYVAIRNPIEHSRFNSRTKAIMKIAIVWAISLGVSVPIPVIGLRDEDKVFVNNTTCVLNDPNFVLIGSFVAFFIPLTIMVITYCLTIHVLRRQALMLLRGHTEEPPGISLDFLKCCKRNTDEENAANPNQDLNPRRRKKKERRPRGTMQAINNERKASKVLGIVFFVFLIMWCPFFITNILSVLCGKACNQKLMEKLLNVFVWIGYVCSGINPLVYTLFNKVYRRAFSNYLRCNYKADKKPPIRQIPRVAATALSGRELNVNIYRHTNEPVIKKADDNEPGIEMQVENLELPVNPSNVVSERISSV
In words: 5-HT2C receptor binding in pig choroid plexus (3H-methylsergide). Here is the method:
Binding activity at a variety of receptor targets, including recombinant human serotonin receptors and rat dopamine D2 and human recombinant dopamine D4 receptors, was measured in vitro using standard radioligand displacement methods (NovaScreen/Caliper/Perkin-Elmer, Hanover, MD), to determine affinity. […] D2 receptor binding was measured at rat recombinant receptors expressed in Chinese hamster ovary (CHO) cells and using ^3H-methylspiperone as a radioligand and in rat striatum using ^3H-sulpiride as a radioligand. […] D4 receptor binding was measured at human recombinant receptor s expressed in CHO cells and using ^3 H-methylspiperone as a radioligand. D1 receptor binding at human recombinant receptor was measured in CHO cells using ^3H-SCH23390 as a radioligand. 5-HT2C receptor binding was measured in pig choroid plexus using ^3 H-methylsergide as a radioligand. Binding to alpha adrenergic receptors in the rat frontal cortex (alpha1A) or rat liver (alpha1B) was measured using ^3H-prazosin as a radioligand. Histamine H1 receptor binding was measured in bovine cere- bellum using ^3H-pyrilamine as a radioligand. […] The affinity constant (Ki) for each receptor subtype or inhibitory concentration 50 (IC50) for inhibition in functional assays was calculated.

Test [2] has as its target 5-HT2A receptor (Homo sapiens, UniProt P28223). In words: Serotonin-mediated phosphatidylinositol (PI) turnover in HEK293 cells. The format is cell-based. The conditions noted are these: right-shifting the serotonin dose–response curve.
The test system of test [3] is serine 40 (S40)-phosphorylated tyrosine hydroxylase. The test can be described thus: Striatal tyrosine hydroxylase S40 phosphorylation state (CNSProfile immunoblotting). The format is in vivo. The conditions noted are these: mice, acute; ITI-007 3 mg/kg p.o., clozapine 5 i.p., aripiprazole 10 p.o., olanzapine 1 i.p., risperidone 3 p.o., haloperidol 1 i.p.; over 60 min; vs vehicle. The method, then:
The effect of the selected compounds on the phosphorylation state of tyrosine hydroxylase (TH) was measured and quantitated as an indicator of the potential of each compound to perturb presynaptic dopamine synthesis in striatum. […] This technique preserves in vivo levels of brain protein phosphorylation ([Zhu et al. 2010]). […] Small aliquots of the homogenate were retained for protein determination by the bicinchoninic acid (BCA) protein assay method (Pierce Chemical Co., Rockford, IL). […] Immunoblotting was carried out using a phos-phorylation state-specific polyclonal antibody raised against […] (S40)-phosphorylated tyrosine hydroxylase (Chemicon, Temecula, CA) and a pan-TH monoclonal antibody for measuring the total protein levels (BD Biosciences, San Jose, CA). […] Antibody binding was detected and quantitated using a LiCor Odyssey infrared fluorescent detection system. Phosphorylation at each site detected by phospho-specific antibodies was quantified, normalized to total levels of the protein (non-phosphorylated), and expressed as percent±SEM of the level of phosphorylation in vehicle-treated control mice (N=6).
(A western blot detects proteins with antibodies after separation by electrophoresis.)

Test [4] deals with D-AMPH-induced hyperactivity. In words: Inhibition of D-amphetamine-induced hyperactivity. The format is in vivo. Particulars: rats, p.o.; D-AMPH 1 mg/kg i.p.; distance traveled over 2 h. Here is the method:
Male Sprague–Dawley rats (200–250 g, N=4/treatment group) were habituated to Lucite locomotor activity chambers comprising an AccuScan activity monitoring system (AccuScan Instruments, Inc., Columbus, OH) were maintained in a quiet observation room kept under low light conditions. […] The rats were briefly removed from the activity chambers 60 min later to receive an injection of D-amphetamine hydrochloride (D-AMPH; 1 mg/kg in 1 ml/kg, i.p.). The animals were returned to the activity chambers, and locomotor activity was then recorded for 2 h using system software. Activity was quantitated as distance traveled (cm) over 2 h for each group. Inhibitory activity was calculated as the percent of total activity observed at each dose level of each drug versus animals receiving D-AMPH alone. An ID50 for inhibition of D-AMPH-induced hyperactivity was calculated for each compound.

Broadly, the Ki is the equilibrium dissociation constant of an inhibitor or competing ligand from its target. Low values mean tighter binding, high ones weaker binding.

Chain of 5-HT2A receptor (P28223 whole entry): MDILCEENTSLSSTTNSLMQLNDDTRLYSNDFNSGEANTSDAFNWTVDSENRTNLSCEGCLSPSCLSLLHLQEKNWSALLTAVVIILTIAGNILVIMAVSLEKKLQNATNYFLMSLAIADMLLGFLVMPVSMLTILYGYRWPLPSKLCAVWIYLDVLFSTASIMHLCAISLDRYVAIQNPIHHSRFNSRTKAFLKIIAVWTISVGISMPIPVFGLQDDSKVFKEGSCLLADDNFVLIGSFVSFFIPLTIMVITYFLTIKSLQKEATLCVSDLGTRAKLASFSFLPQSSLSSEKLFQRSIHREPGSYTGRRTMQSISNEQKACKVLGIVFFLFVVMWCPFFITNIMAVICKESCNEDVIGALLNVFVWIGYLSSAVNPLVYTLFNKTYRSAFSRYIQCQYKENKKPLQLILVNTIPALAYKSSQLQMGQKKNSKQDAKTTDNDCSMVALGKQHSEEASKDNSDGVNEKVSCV

Consider `CN1CCN2c3c(cccc31)[C@@H]1CN(CCCC(=O)c3ccc(F)cc3)CC[C@@H]12` [ITI-007, 1-(4-fluoro-phenyl)-4-((6bR,10aS)-3-methyl-2,3,6b,9,10,10a-hexahydro-1H,7H-pyrido[3′,4′:4,5]pyrrolo[1,2,3-de]quinoxalin-8-yl)-butan-1-one], for which the “Binding to 5-HT2C receptors” value in test [1] was “did not significantly bind”. The compound also returned an inhibition constant (Ki) in test [1] (radioligand displacement, unit inferred) of 173 nM. Further, in test [2], the “Effect on serotonin-mediated increases in phosphatidylinositol (PI) turnover” value is “antagonize”. In addition, in test [3], the “Effect on TH phosphorylation at S40 in striatum” value is on record as “no significant effect”. The “ID50, inhibition of D-AMPH-induced hyperactivity” value in test [4] is 0.95 mg/kg and ~ 1.0 mg/kg.
